Reference: US20180000085A1, “USE OF PICOLINAMIDE COMPOUNDS WITH FUNGICIDAL ACTIVITY” (DOW AGROSCIENCES LLC, priority 2014, published 2018)

Legend:
Assay type in all cases: in vivo
Zymoseptoria tritici = test: Leaf blotch of wheat (SEPTTR) disease control on wheat seedlings; conditions: low volume application, 125.1 g/H; for SEPTTR 1DP disease control rating, LV activity at 125.1 g/H: 1 day protectant; for SEPTTR 3DC disease control rating, LV activity at 125.1 g/H: 3 day curative; for SEPTTR 1DP, LV activity at 125.1 g/H (% Control rating): 1 Day Protectant; for SEPTTR 3DC, LV activity at 125.1 g/H (% Control rating): 3 Day Curative
Phakopsora pachyrhizi = test: Asian soybean rust (PHAKPA) disease control; conditions: 25 ppm; for PHAKPA disease control, 1DP: 1 Day Protectant; for PHAKPA disease control, 3DC: 3 Day Curative
Puccinia triticina = test: Wheat brown rust (PUCCRT) disease control on wheat seedlings; conditions: low volume application, 125.1 g/H; for PUCCRT 1DP disease control rating, LV activity at 125.1 g/H: 1 day protectant; for PUCCRT 3DC disease control rating, LV activity at 125.1 g/H: 3 day curative; for PUCCRT 1DP, LV activity at 125.1 g/H (% Control rating): 1 Day Protectant; for PUCCRT 3DC, LV activity at 125.1 g/H (% Control rating): 3 Day Curative

With `COc1ccnc(C(=O)N[C@@H](C)C(=O)O[C@@H](C)[C@H](Oc2ccccc2)c2ccc(F)cc2)c1OC(C)=O` [Cmpd 925] the “SEPTTR 1DP disease control rating, LV activity at 125.1 g/H” value (“SEPTTR 1DP disease control rating” below) (Zymoseptoria tritici) was “A (> 80)”, the “SEPTTR 3DC disease control rating, LV activity at 125.1 g/H” value (“SEPTTR 3DC disease control rating” below) (Zymoseptoria tritici) was “A (> 80)” and the “PHAKPA disease control, 1DP” value (Phakopsora pachyrhizi) was “A (> 80)”. The “PHAKPA disease control, 3DC” value (Phakopsora pachyrhizi) was “B (≤ 80)”, the “PUCCRT 1DP disease control rating, LV activity at 125.1 g/H” value (“PUCCRT 1DP disease control rating” below) (Puccinia triticina) was “A (> 80)” and the “PUCCRT 3DC disease control rating, LV activity at 125.1 g/H” value (“PUCCRT 3DC disease control rating” below) (Puccinia triticina) was “A (> 80)”.

`COc1ccnc(C(=O)N[C@@H](C)C(=O)O[C@@H](C)[C@H](Oc2ccc(F)cc2)C(C)C)c1OC(C)=O` [Cmpd 626] was tested, and the “SEPTTR 1DP, LV activity at 125.1 g/H (% Control rating)” value (“SEPTTR 1DP … (% Control rating)” below) (Zymoseptoria tritici) was “A (> 80)”, the “SEPTTR 3DC, LV activity at 125.1 g/H (% Control rating)” value (shortened to “SEPTTR 3DC … (% Control rating)”) (Zymoseptoria tritici) was “A (> 80)” and the “PHAKPA disease control, 1DP” value (Phakopsora pachyrhizi) was “A (> 80)”. For the same compound, the “PHAKPA disease control, 3DC” value (Phakopsora pachyrhizi) was “B (≤ 80)”, the “PUCCRT 1DP, LV activity at 125.1 g/H (% Control rating)” value (“PUCCRT 1DP … (% Control rating)” for short) (Puccinia triticina) was “A (> 80)” and the “PUCCRT 3DC, LV activity at 125.1 g/H (% Control rating)” value (“PUCCRT 3DC … (% Control rating)” below) (Puccinia triticina) was “A (> 80)”.

In the case of `COc1ccnc(C(=O)NC(C)C(=O)OC(C)C(Oc2ccccc2)C2CCCCC2)c1OC(C)=O` (stereo not drawn) [Cmpd 908], the “SEPTTR 1DP disease control rating” value (Zymoseptoria tritici) is reported as “A (> 80)”, the “SEPTTR 3DC disease control rating” value (Zymoseptoria tritici) is reported as “A (> 80)” and the “PHAKPA disease control, 1DP” value (Phakopsora pachyrhizi) is reported as “A (> 80)”. For the same compound, the “PHAKPA disease control, 3DC” value (Phakopsora pachyrhizi) was “B (≤ 80)”, the “PUCCRT 1DP disease control rating” value (Puccinia triticina) was “A (> 80)” and the “PUCCRT 3DC disease control rating” value (Puccinia triticina) was “A (> 80)”.

`CCC(CC)[C@@H](Oc1ccccc1Cl)[C@H](C)OC(=O)[C@H](C)NC(=O)c1nccc(OC)c1OCOC(C)=O` [Cmpd 593] was tested, and the “SEPTTR 1DP … (% Control rating)” value (Zymoseptoria tritici) was “A (> 80)”, the “SEPTTR 3DC … (% Control rating)” value (Zymoseptoria tritici) was “A (> 80)” and the “PHAKPA disease control, 1DP” value (Phakopsora pachyrhizi) was “A (> 80)”. For the same compound, the “PHAKPA disease control, 3DC” value (Phakopsora pachyrhizi) was “B (≤ 80)”, the “PUCCRT 1DP … (% Control rating)” value (Puccinia triticina) was “A (> 80)” and the “PUCCRT 3DC … (% Control rating)” value (Puccinia triticina) was “A (> 80)”.

`COc1ccnc(C(=O)N[C@@H](C)C(=O)O[C@@H](C)[C@H](Oc2ccc(C)cc2)C2CCCC2)c1OC(C)=O` [Cmpd 923] was tested, and the “SEPTTR 1DP disease control rating” value (Zymoseptoria tritici) was “B (≤ 80)”, the “SEPTTR 3DC disease control rating” value (Zymoseptoria tritici) was “B (≤ 80)” and the “PHAKPA disease control, 1DP” value (Phakopsora pachyrhizi) was “A (> 80)”. The “PHAKPA disease control, 3DC” value (Phakopsora pachyrhizi) was “B (≤ 80)”, the “PUCCRT 1DP disease control rating” value (Puccinia triticina) was “A (> 80)” and the “PUCCRT 3DC disease control rating” value (Puccinia triticina) was “A (> 80)”.

In the case of `COc1ccnc(C(=O)N[C@@H](C)C(=O)O[C@@H](C)[C@@H](Cc2ccccc2)Oc2ccccc2)c1OCOC(C)=O` [Cmpd 550], the “SEPTTR 1DP … (% Control rating)” value (Zymoseptoria tritici) is reported as “A (> 80)”, the “SEPTTR 3DC … (% Control rating)” value (Zymoseptoria tritici) is reported as “A (> 80)” and the “PHAKPA disease control, 1DP” value (Phakopsora pachyrhizi) is reported as “B (≤ 80)”. The “PHAKPA disease control, 3DC” value (Phakopsora pachyrhizi) was “B (≤ 80)”, the “PUCCRT 1DP … (% Control rating)” value (Puccinia triticina) was “A (> 80)” and the “PUCCRT 3DC … (% Control rating)” value (Puccinia triticina) was “A (> 80)”.

With `COc1ccnc(C(=O)N[C@@H](C)C(=O)O[C@@H](C)[C@H](Oc2cc(F)ccc2F)C(C)C)c1OC(C)=O` [Cmpd 627] the “SEPTTR 1DP … (% Control rating)” value (Zymoseptoria tritici) was “B (≤ 80)”, the “SEPTTR 3DC … (% Control rating)” value (Zymoseptoria tritici) was “A (> 80)” and the “PHAKPA disease control, 1DP” value (Phakopsora pachyrhizi) was “B (≤ 80)”. For the same compound, the “PHAKPA disease control, 3DC” value (Phakopsora pachyrhizi) was “B (≤ 80)”, the “PUCCRT 1DP … (% Control rating)” value (Puccinia triticina) was “A (> 80)” and the “PUCCRT 3DC … (% Control rating)” value (Puccinia triticina) was “A (> 80)”.

In the case of `CCC(CC)[C@@H](Oc1ccc(Cl)cc1)[C@H](C)OC(=O)[C@H](C)NC(=O)c1nccc(OC)c1OC(C)=O` [Cmpd 600], the “SEPTTR 1DP … (% Control rating)” value (Zymoseptoria tritici) is reported as “A (> 80)”, the “SEPTTR 3DC … (% Control rating)” value (Zymoseptoria tritici) is reported as “A (> 80)” and the “PHAKPA disease control, 1DP” value (Phakopsora pachyrhizi) is reported as “B (≤ 80)”. For the same compound, the “PHAKPA disease control, 3DC” value (Phakopsora pachyrhizi) was “B (≤ 80)”, the “PUCCRT 1DP … (% Control rating)” value (Puccinia triticina) was “A (> 80)” and the “PUCCRT 3DC … (% Control rating)” value (Puccinia triticina) was “A (> 80)”.

`CCC(CC)[C@H](Oc1ccc(Cl)cc1)[C@H](C)OC(=O)[C@H](C)NC(=O)c1nccc(OC)c1OCOC(C)=O` [Cmpd 669] was tested, and the “SEPTTR 1DP disease control rating” value (Zymoseptoria tritici) was “A (> 80)”, the “SEPTTR 3DC disease control rating” value (Zymoseptoria tritici) was “A (> 80)” and the “PHAKPA disease control, 1DP” value (Phakopsora pachyrhizi) was “A (> 80)”. For the same compound, the “PHAKPA disease control, 3DC” value (Phakopsora pachyrhizi) was “B (≤ 80)”, the “PUCCRT 1DP disease control rating” value (Puccinia triticina) was “A (> 80)” and the “PUCCRT 3DC disease control rating” value (Puccinia triticina) was “A (> 80)”.

`CCC(CC)[C@@H](Oc1cccc(Cl)c1)[C@H](C)OC(=O)[C@H](C)NC(=O)c1nccc(OC)c1OC(C)=O` [Cmpd 599] was tested, and the “SEPTTR 1DP … (% Control rating)” value (Zymoseptoria tritici) was “A (> 80)”, the “SEPTTR 3DC … (% Control rating)” value (Zymoseptoria tritici) was “A (> 80)” and the “PHAKPA disease control, 1DP” value (Phakopsora pachyrhizi) was “A (> 80)”. The “PHAKPA disease control, 3DC” value (Phakopsora pachyrhizi) was “A (> 80)”, the “PUCCRT 1DP … (% Control rating)” value (Puccinia triticina) was “B (≤ 80)” and the “PUCCRT 3DC … (% Control rating)” value (Puccinia triticina) was “A (> 80)”.

`COCC[C@H](Cc1ccc(F)cc1)[C@@H](Oc1ccccc1)[C@H](C)OC(=O)[C@H](C)NC(=O)c1nccc(OC)c1OCOC(C)=O` [Cmpd 498] was tested, and the “SEPTTR 1DP … (% Control rating)” value (Zymoseptoria tritici) was “A (> 80)”, the “SEPTTR 3DC … (% Control rating)” value (Zymoseptoria tritici) was “A (> 80)” and the “PHAKPA disease control, 1DP” value (Phakopsora pachyrhizi) was “A (> 80)”. The “PHAKPA disease control, 3DC” value (Phakopsora pachyrhizi) was “B (≤ 80)”, the “PUCCRT 1DP … (% Control rating)” value (Puccinia triticina) was “A (> 80)” and the “PUCCRT 3DC … (% Control rating)” value (Puccinia triticina) was “A (> 80)”.

In the case of `COc1ccnc(C(=O)N[C@@H](C)C(=O)O[C@@H](C)[C@H](Oc2ccc(F)cc2)C(C)C)c1OCOC(C)=O` [Cmpd 615], the “SEPTTR 1DP … (% Control rating)” value (Zymoseptoria tritici) is reported as “A (> 80)”, the “SEPTTR 3DC … (% Control rating)” value (Zymoseptoria tritici) is reported as “A (> 80)” and the “PHAKPA disease control, 1DP” value (Phakopsora pachyrhizi) is reported as “A (> 80)”. For the same compound, the “PHAKPA disease control, 3DC” value (Phakopsora pachyrhizi) was “B (≤ 80)”, the “PUCCRT 1DP … (% Control rating)” value (Puccinia triticina) was “A (> 80)” and the “PUCCRT 3DC … (% Control rating)” value (Puccinia triticina) was “A (> 80)”.

`COc1ccnc(C(=O)N[C@@H](C)C(=O)O[C@@H](C)[C@H](Oc2cccc(Cl)c2)C2CCCC2)c1OC(C)=O` [Cmpd 920, (S)-(1R,2S)-1-(3-chlorophenoxy)-1-cyclopentylpropan-2-yl-2-(3-acetoxy-4-methoxypicolinamido)propanoate] was tested, and the “SEPTTR 1DP disease control rating” value (Zymoseptoria tritici) was “A (> 80)”, the “SEPTTR 3DC disease control rating” value (Zymoseptoria tritici) was “A (> 80)” and the “PHAKPA disease control, 1DP” value (Phakopsora pachyrhizi) was “B (≤ 80)”. The “PHAKPA disease control, 3DC” value (Phakopsora pachyrhizi) was “B (≤ 80)”, the “PUCCRT 1DP disease control rating” value (Puccinia triticina) was “A (> 80)” and the “PUCCRT 3DC disease control rating” value (Puccinia triticina) was “A (> 80)”.

`COc1ccnc(C(=O)N[C@@H](C)C(=O)O[C@@H](C)[C@H](Oc2cc(F)ccc2F)C(C)C)c1OCOC(C)=O` [Cmpd 616] was tested, and the “SEPTTR 1DP … (% Control rating)” value (Zymoseptoria tritici) was “B (≤ 80)”, the “SEPTTR 3DC … (% Control rating)” value (Zymoseptoria tritici) was “A (> 80)” and the “PHAKPA disease control, 1DP” value (Phakopsora pachyrhizi) was “A (> 80)”. The “PHAKPA disease control, 3DC” value (Phakopsora pachyrhizi) was “A (> 80)”, the “PUCCRT 1DP … (% Control rating)” value (Puccinia triticina) was “A (> 80)” and the “PUCCRT 3DC … (% Control rating)” value (Puccinia triticina) was “A (> 80)”.

For `CCC(CC)[C@H](Oc1ccc(Cl)cc1Cl)[C@H](C)OC(=O)[C@H](C)NC(=O)c1nccc(OC)c1OCOC(C)=O` [Cmpd 670], the “SEPTTR 1DP disease control rating” value (Zymoseptoria tritici) was “A (> 80)”, the “SEPTTR 3DC disease control rating” value (Zymoseptoria tritici) was “A (> 80)” and the “PHAKPA disease control, 1DP” value (Phakopsora pachyrhizi) was “B (≤ 80)”. For the same compound, the “PHAKPA disease control, 3DC” value (Phakopsora pachyrhizi) was “B (≤ 80)”, the “PUCCRT 1DP disease control rating” value (Puccinia triticina) was “A (> 80)” and the “PUCCRT 3DC disease control rating” value (Puccinia triticina) was “A (> 80)”.

For `COc1ccnc(C(=O)N[C@@H](C)C(=O)O[C@@H](C)[C@H](Oc2ccccc2Cl)c2ccccc2)c1OCOC(C)=O` [Cmpd 639], the “SEPTTR 1DP … (% Control rating)” value (Zymoseptoria tritici) was “B (≤ 80)”, the “SEPTTR 3DC … (% Control rating)” value (Zymoseptoria tritici) was “A (> 80)” and the “PHAKPA disease control, 1DP” value (Phakopsora pachyrhizi) was “A (> 80)”. The “PHAKPA disease control, 3DC” value (Phakopsora pachyrhizi) was “B (≤ 80)”, the “PUCCRT 1DP … (% Control rating)” value (Puccinia triticina) was “A (> 80)” and the “PUCCRT 3DC … (% Control rating)” value (Puccinia triticina) was “A (> 80)”.

`COc1ccnc(C(=O)N[C@@H](C)C(=O)O[C@@H](C)[C@H](Oc2cccc(F)c2)C(C)C)c1OCOC(C)=O` [Cmpd 614] was tested, and the “SEPTTR 1DP … (% Control rating)” value (Zymoseptoria tritici) was “B (≤ 80)”, the “SEPTTR 3DC … (% Control rating)” value (Zymoseptoria tritici) was “A (> 80)” and the “PHAKPA disease control, 1DP” value (Phakopsora pachyrhizi) was “A (> 80)”. The “PHAKPA disease control, 3DC” value (Phakopsora pachyrhizi) was “A (> 80)”, the “PUCCRT 1DP … (% Control rating)” value (Puccinia triticina) was “A (> 80)” and the “PUCCRT 3DC … (% Control rating)” value (Puccinia triticina) was “A (> 80)”.
